According to patent US9499614B2, “Methods for modulating protein glycosylation profiles of recombinant protein therapeutics using monosaccharides and oligosaccharides” (AbbVie, Inc., priority 2013, dated 2016):
Entries after “also recorded” stand apart in the source; their conditions may differ.

Experiments:
Cell Line 1 [1] = assay: 3 L laboratory-scale bioreactor culture of Cell Line 1, cell culture performance; type: cell-based, Chinese Hamster; settings: for Osmolality / cell viability / lactate / pCO2 / viable cell density: 50 mM supplement vs control; for final harvest titer ratio: relative to unsupplemented control
Method: Two recombinant Chinese Hamster Ovary (CHO) cell lines expressing two different humanized monoclonal antibodies (Antibody 1, Antibody 2) were evaluated in two different culture vessels (shaker flasks and laboratory scale bioreactors). Both cell lines were of CHO DUX-B11 origin based on a dhfr (dihydrofolate reductase) expression system. Both cell lines were cultured in the same chemically defined basal media (CDBM), with Cell Line 1 also utilizing a chemically-defined feed media (CDFM). Each of the respective media were supplemented with selected monosaccharides and oligosaccharides to evaluate their potential impact on the resulting N-glycan oligosaccharide profile. In preparing the cultures, the cell lines were serially expanded through separate seed train inoculums to generate enough cells for inoculation.
(§1) Viable cell density (VCD) and cell viability values were measured through trypan blue exclusion via Cedex automated cell counters (Roche Applied Science, Indianapolis, Ind.), glucose and lactate values were measured with a ABL-805 (Radiometer Medical, Denmark) blood gas analyzer. Offline pH, dissolved oxygen (DO), and pCO2 measurements were performed with a ABL-805 (Radiometer Medical, Denmark) blood gas analyzer. Osmolality was measured on a Multi-Osmette 2430 osmometer (Precision Systems, Natick, Mass.).
Antibody titers were measured from crude cell culture harvests on a Poros A™ (Life Technologies, Carlsbad, Calif.) affinity column using an Agilent (Santa Clara, Calif.) 1200 Series HPLC, or equivalent, operating with a low pH, step elution gradient with detection at 280 nm. Absolute concentrations were assigned with respect to reference standard calibration curves.
3 L scale-down model bioreactors were utilized to verify the impact of select sugars on the resulting protein glycosylation profiles. The concentration of the sucrose and tagatose was chosen to minimize any potential adverse impact on cell growth and productivity, but still facilitate a measurable modulation of the glycosylation profile. Cell culture process performance indicators were monitored and measured throughout the respective cultures. Viable cell density, cell viability, lactate, pCO2, osmolality, harvest titer, and harvest N-glycan oligosaccharide data were measured and reported.
Two recombinant Chinese Hamster Ovary (CHO) cell lines expressing two different recombinant glycoproteins were evaluated in two different cultures vessels (shaker flasks and 3 L laboratory scale bioreactors). Cell Line 1 expressed Antibody 1, Cell Line 2 expressed Dual Variable Domain Immunoglobulin 1 (DVD 1) and Cell Line 3 expressed Antibody 2. Antibodies 1 and 2 are IgG1 proteins, and DVD 1 is an immunoglobulin with two variable domains as documented previously (Wu C. et al., (2007) Nat. Biotechnol 25(11):1290-1297). All cell lines were of CHO DUX-B11 origin based on a dhfr (dihydrofolate reductase) expression system. All cell lines were cultured in the same chemically defined basal media. Cell lines 1 and 2 were fed with the same chemically-defined feed media, but Cell Line 1 was fed media that was formulated at a 50% higher concentration. Each of the respective media were supplemented with either sucrose or tagatose to evaluate their potential impact on the resulting N-glycan oligosaccharide profile. All sugars were purchased from Sigma-Aldrich (St. Louis, Mo.). In preparation of the cultures, the cell lines were serially expanded through separate seed train inoculums to generate enough cells for inoculation.
as §1, with “performed with an ABL-805 (Radiometer” for “performed with a ABL-805 (Radiometer”, “gas analyzer. […]” for “gas analyzer. Osmolality was measured on a Multi-Osmette 2430 osmometer (Precision Systems, Natick, Mass.).”

Cell Line 1 [2] = assay: Shake flask fedbatch culture of Cell Line 1 (Antibody 1), cell culture performance (Example 2); type: cell-based, Chinese Hamster; settings: for Antibody 1 harvest titer: 1, 10, 30, 50, 70 mM vs control
Method: Two recombinant Chinese Hamster Ovary (CHO) cell lines expressing two different recombinant glycoproteins were evaluated in two different cultures vessels (shaker flasks and 3 L laboratory scale bioreactors). Cell Line 1 expressed Antibody 1, Cell Line 2 expressed Dual Variable Domain Immunoglobulin 1 (DVD 1) and Cell Line 3 expressed Antibody 2. Antibodies 1 and 2 are IgG1 proteins, and DVD 1 is an immunoglobulin with two variable domains as documented previously (Wu C. et al., (2007) Nat. Biotechnol 25(11):1290-1297). All cell lines were of CHO DUX-B11 origin based on a dhfr (dihydrofolate reductase) expression system. All cell lines were cultured in the same chemically defined basal media. Cell lines 1 and 2 were fed with the same chemically-defined feed media, but Cell Line 1 was fed media that was formulated at a 50% higher concentration. Each of the respective media were supplemented with either sucrose or tagatose to evaluate their potential impact on the resulting N-glycan oligosaccharide profile. All sugars were purchased from Sigma-Aldrich (St. Louis, Mo.). In preparation of the cultures, the cell lines were serially expanded through separate seed train inoculums to generate enough cells for inoculation. […] [table] Viable cell density (VCD) and cell viability values were measured through trypan blue exclusion via Cedex automated cell counters (Roche Applied Science, Indianapolis, Ind.), glucose and lactate values were measured with a ABL-805 (Radiometer Medical, Denmark) blood gas analyzer. Offline pH, dissolved oxygen (DO), and pCO2 measurements were performed with an ABL-805 (Radiometer Medical, Denmark) blood gas analyzer. Osmolality was measured on a Multi-Osmette 2430 osmometer (Precision Systems, Natick, Mass.). Antibody titers were measured from crude cell culture harvests on a Poros A™ (Life Technologies, Carlsbad, Calif.) affinity column using an Agilent (Santa Clara, Calif.) 1200 Series HPLC, or equivalent, operating with a low pH, step elution gradient with detection at 280 nm. Absolute concentrations were assigned with respect to reference standard calibration curves. Experimental results are expressed as mean±SD for those results generated from at least three independent cultures. Experimental results are expressed as the measured value for those results generated from less than three independent cultures. Results were evaluated for statistical significance through 2-sided t-tests, with a requirement of p<0.05 relative to the unsupplemented control conditions. Cell Line 1 was cultured in shake flasks in fedbatch mode after an abbreviated seed train. Sucrose and tagatose were supplemented into chemically-defined basal and feed media at concentrations of 1, 10, 30, 50, and 70 mM, and compared to unsupplemented control conditions. The viable cell density (VCD), viability, and harvest titer results are shown in FIGS. 13A-13C for the sucrose supplemented cultures and FIGS. 14A-14C for the tagatose supplemented cultures.

Structure (SMILES) | Osmolality (Cell Line 1 [1]) | cell viability (Cell Line 1 [1]) | lactate (Cell Line 1 [1]) | pCO2 (Cell Line 1 [1]) | viable cell density (Cell Line 1 [1]) | final harvest titer ratio (Cell Line 1 [1]; 50 mM supplement) | peak VCD (Cell Line 1 [2]; 50 mM and 70 mM) | increase in harvest titer (Cell Line 1 [2]; 50 mM vs control) [%] | Antibody 1 harvest titer (Cell Line 1 [2]) | viable cell density over time (Cell Line 1 [2]; 1, 10 and 30 mM) | cell viability after process day 10 (Cell Line 1 [2]; 10, 30, 50 and 70 mM) | peak VCD (Cell Line 1 [1]; 50 mM supplement) | viable cell density over time (Cell Line 1 [2]; 1 mM and 10 mM) | decrease in harvest titer (Cell Line 1 [2]; 70 mM vs control) [%] | cell viability after process day 10 (Cell Line 1 [2]; 30, 50 and 70 mM) | peak VCD (Cell Line 1 [2]; 30, 50 and 70 mM)
OC[C@H]1O[C@@](CO)(O[C@H]2O[C@H](CO)[C@@H](O)[C@H](O)[C@H]2O)[C@@H](O)[C@@H]1O [sucrose] | only slightly higher | no impact | only a nominal increase | no significant difference | no impact | 0.78 | reduction in peak VCD | 2 | essentially indistinguishable from the control conditions | remained essentially the same | died slower than the control | – | – | – | – | –
O=C(CO)[C@@H](O)[C@@H](O)[C@H](O)CO [tagatose] | higher; also recorded: only slightly higher | remained high throughout the culture | only a nominal increase | no significant difference | much more pronounced effect | 0.90 | – | – | essentially indistinguishable | – | – | 8.5×10^6 cells/mL | remained similar or higher | 9 | died slower than the control | reduction in peak VCD
